Test results reported in patent publication US20240390434A1, “PROBIOTIC ENHANCERS AND USES THEREOF” (Blis Technologies Limited, priority 2021, published 2024).

Key:
Assay type in all cases: cell-based
[1] = test system: bacterial indicator strains; test: Split plate inhibitory activity of K12 in commercial powder Daily Defence Junior; conditions: raffinose 2.5% w/w, galactose 0.5% w/w, or combination
Procedure: Method: Formulations for testing were prepared as follows: • 1. Control: Commercial powder formulation (Daily Defence Junior) containing S. salivarius K12 • 2. Galactose 0.5% w/w was added to the commercial powder and mixed thoroughly to achieve a uniform mixture. • 3. Raffinose 2.5% w/w was added to the commercial powder and mixed thoroughly to achieve a uniform mixture.
The following method was used to measure the inhibitory effect of S. salivarius K12 in the context of the powder formulations. Exactly 40 mL of 50° C. molten CAB agar containing 0.5% calcium carbonate (CABCa) was poured in agar plates (120×120 mm). Once the agar was set upon cooling, it was split in the middle and half of the agar gel was removed. The other half was left on the plate as Blank agar marked as side “A”. Approximately, 0.8 g of each combination (DDJ powder with (1) galactose, (2) raffinose or (3) combination of raffinose and galactose) was mixed with 1 mL of sterile distilled water and vortexed to produce a homogeneous suspension. […] The pH of the producer side was measured and adjusted to 6.5-7.5 by soaking into the agar a solution of 0.5 M sodium carbonate pH 11. […] The zone of inhibition of each indicator strain was measured (in mm) using a ruler. Results were also read using a macroscope to establish presence of small colonies or complete inhibition zones.

[2] = test system: pathogens implicated in the ENT and Skin infections; test: Deferred antagonism assay with other S. salivarius producer strains
Procedure: Method: Preparation of solid culture media—CABCa agar plates were prepared with or without either 2.5% w/w raffinose or 0.5% w/w galactose by the addition of 0.5% (w/v) calcium carbonate to solid CAB agar in bottles and then melted by autoclaving at 110° C. for 10 mins. Once cooled, filter sterilised solutions of the saccharides or distilled water were added and mixed and then 20 ml pipetted into petri dishes.
Preparing S. salivarius producer suspension, about 6 colonies of each S. salivarius strain were added into separate tubes containing 1 ml THB and mixed well.
Deferred antagonism assay—100 μl of S. salivarius producer suspensions was dispensed onto CABCa plates supplemented with or without raffinose or galactose as droplets in a vertical line down the middle of the test plate. This suspension was then spread as 1.2 cm streak down the middle of the plate using a cutdown plastic spreader. Plates were incubated for 18 hours at 37° C., 5% CO2 in air.
After incubation, the bacterial growth was then removed from the agar plate using a sterile cotton swab. The pH of the producer streak was then adjusted by placing a 1 cm wide strip of filter paper soaked in 0.5M sodium carbonate pH 11 onto the agar plate to buffer the acid and adjust the pH up to around pH 6.5-7.5.
Plates were surface sterilised with chloroform vapour for 30 minutes, followed by air drying for 30 minutes.
Bacterial indicator suspensions were prepared by adding 3-9 colonies (depending on the size) of each strain into separate tubes containing 3 ml THB. These suspensions were then swabbed across the agar plate perpendicular to the producer streak and then the agar plate was incubated for a further 18 hours at 37° C., 5% CO2 in air.

[3] = test system: S. pyogenes strain as well as other microorganisms; test: Inhibitory activity of M18 grown in M17 broth with saccharides; conditions: saccharide 0.83% or 2.5% w/v, vs control

## O=C[C@H](O)[C@@H](O)[C@@H](O)[C@H](O)CO [Galactose, D-galactose]
[1]
  inhibitory activity of S. salivarius K12 in commercial powder vs control: increased
[2]; 0.5% w/w galactose, compared with K12 and M18
  induction of inhibitory effect in other S. salivarius strains: does not induce the same inhibitory effect
[3]
  inhibitory activity of M18 grown in presence of saccharide: greater inhibitory activity

## OC[C@H]1O[C@H](OC[C@H]2O[C@H](O[C@]3(CO)O[C@H](CO)[C@@H](O)[C@@H]3O)[C@H](O)[C@@H](O)[C@@H]2O)[C@H](O)[C@@H](O)[C@H]1O [Raffinose, D-(+) Raffinose pentahydrate]
[1]
  inhibitory activity of S. salivarius K12 in commercial powder vs control: increased
[2]; 2.5% w/w raffinose, compared with K12 and M18
  induction of inhibitory effect in other S. salivarius strains, exception ATCC 7073: does not induce same inhibitory effect
[2]; supplemented with 2.5% w/w raffinose
  antimicrobial activity of S. salivarius strain ATCC 7073: antimicrobial activity
[3]
  inhibitory activity of M18 grown in presence of saccharide: greater inhibitory activity
